PubChem BioAssay (NCI)
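All cell lines were grown in 96-well plates and treated with compound for 48 hours. GI50: concentration for 50% inhibition of growth. The concentration for full growth arrest is given as TGI.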

How the values were obtained:
Assay in all cases: growth of human tumour cells (NCI), 48 h
OVCAR-8 ovarian = system: OVCAR-8 ovarian
MALME-3M melanoma = system: MALME-3M melanoma
UO-31 renal = system: UO-31 renal
UACC-257 melanoma = system: UACC-257 melanoma
A549 NSCLC = system: A549 NSCLC
SW-620 colon = system: SW-620 colon
CAKI-1 renal = system: CAKI-1 renal
MDA-MB-435 = system: MDA-MB-435
HL-60(TB) leukemia = system: HL-60(TB) leukemia
MDA-MB-231 breast = system: MDA-MB-231 breast
U251 CNS = system: U251 CNS
HT29 colon = system: HT29 colon
NCI/ADR-RES ovarian = system: NCI/ADR-RES ovarian
DU-145 prostate = system: DU-145 prostate
786-0 renal = system: 786-0 renal
OVCAR-5 ovarian = system: OVCAR-5 ovarian
K-562 leukemia = system: K-562 leukemia
CCRF-CEM leukemia = system: CCRF-CEM leukemia
OVCAR-4 ovarian = system: OVCAR-4 ovarian
SNB-19 CNS = system: SNB-19 CNS
HCT-15 colon = system: HCT-15 colon
ACHN renal = system: ACHN renal
SK-MEL-28 melanoma = system: SK-MEL-28 melanoma
OVCAR-3 ovarian = system: OVCAR-3 ovarian
RPMI-8226 leukemia = system: RPMI-8226 leukemia
BT-549 breast = system: BT-549 breast
RXF 393 renal = system: RXF 393 renal
NCI-H460 lung = system: NCI-H460 lung
IGROV1 ovarian = system: IGROV1 ovarian
NCI-H23 lung = system: NCI-H23 lung
COLO 205 colon = system: COLO 205 colon
MOLT-4 leukemia = system: MOLT-4 leukemia
UACC-62 melanoma = system: UACC-62 melanoma
HCC-2998 colon = system: HCC-2998 colon
A498 renal = system: A498 renal
SK-MEL-5 melanoma = system: SK-MEL-5 melanoma
M14 melanoma = system: M14 melanoma
LOX IMVI melanoma = system: LOX IMVI melanoma
MCF7 breast = system: MCF7 breast
SF-539 CNS = system: SF-539 CNS
SK-OV-3 ovarian = system: SK-OV-3 ovarian
KM12 colon = system: KM12 colon
HOP-62 NSCLC = system: HOP-62 NSCLC
HS 578T breast = system: HS 578T breast
SR leukemia = system: SR leukemia
PC-3 prostate = system: PC-3 prostate
HCT-116 colon = system: HCT-116 colon
SNB-75 CNS = system: SNB-75 CNS
SK-MEL-2 melanoma = system: SK-MEL-2 melanoma
HOP-92 NSCLC = system: HOP-92 NSCLC
EKVX NSCLC = system: EKVX NSCLC
SF-295 CNS = system: SF-295 CNS
NCI-H522 lung = system: NCI-H522 lung
TK-10 renal = system: TK-10 renal
T-47D breast = system: T-47D breast
SF-268 CNS = system: SF-268 CNS
SN12C renal = system: SN12C renal

## O=C(/C=C\n1cnc(-c2cc(C(F)(F)F)cc(C(F)(F)F)c2)n1)N1CC(F)(F)C1
OVCAR-8 ovarian
  GI50: 0.442 µM
  TGI: > 11.8 µM
MALME-3M melanoma
  GI50: 1.14 µM
  TGI: 5.84 µM
UO-31 renal
  GI50: 0.422 µM
  TGI: > 25 µM
UACC-257 melanoma
  GI50: 1.17 µM
  TGI: > 13.1 µM
A549 NSCLC
  GI50: 0.559 µM
  TGI: > 25 µM
SW-620 colon
  GI50: 0.318 µM
  TGI: 12.9 µM
CAKI-1 renal
  GI50: 0.288 µM
  TGI: 6.84 µM
MDA-MB-435
  GI50: 1.4 µM
  TGI: 6.38 µM
HL-60(TB) leukemia
  GI50: 0.399 µM
  TGI: > 17.1 µM
MDA-MB-231 breast
  GI50: 0.305 µM
  TGI: 4.52 µM
U251 CNS
  GI50: 0.248 µM
  TGI: 3.66 µM
HT29 colon
  GI50: 0.919 µM
  TGI: 11.5 µM
NCI/ADR-RES ovarian
  GI50: 0.552 µM
  TGI: 10.9 µM
DU-145 prostate
  GI50: 1.69 µM
  TGI: 12.1 µM
786-0 renal
  GI50: 0.387 µM
  TGI: 6.12 µM
OVCAR-5 ovarian
  GI50: 0.671 µM
  TGI: > 25 µM
K-562 leukemia
  GI50: 0.43 µM
  TGI: > 25 µM
CCRF-CEM leukemia
  GI50: 0.407 µM
  TGI: > 18.8 µM
OVCAR-4 ovarian
  GI50: 0.224 µM
  TGI: 4.13 µM
SNB-19 CNS
  GI50: 0.273 µM
  TGI: > 25 µM
HCT-15 colon
  GI50: 0.651 µM
  TGI: 4.86 µM
ACHN renal
  GI50: 1.3 µM
  TGI: > 25 µM
SK-MEL-28 melanoma
  GI50: 0.46 µM
  TGI: 4.81 µM
OVCAR-3 ovarian
  GI50: 0.332 µM
  TGI: 3.03 µM
RPMI-8226 leukemia
  GI50: 0.408 µM
  TGI: 17.9 µM
BT-549 breast
  GI50: 0.0336 µM
  TGI: 0.223 µM
RXF 393 renal
  GI50: 0.226 µM
  TGI: 1.09 µM
NCI-H460 lung
  GI50: 0.207 µM
  TGI: 3.07 µM
IGROV1 ovarian
  GI50: 0.978 µM
  TGI: 8.59 µM
NCI-H23 lung
  GI50: 0.391 µM
  TGI: 5.61 µM
COLO 205 colon
  GI50: 0.351 µM
  TGI: 4.14 µM
MOLT-4 leukemia
  GI50: 0.197 µM
  TGI: 0.944 µM
UACC-62 melanoma
  GI50: 1.17 µM
  TGI: 9.2 µM
HCC-2998 colon
  GI50: 0.729 µM
  TGI: 4.42 µM
A498 renal
  GI50: 0.0375 µM
  TGI: 0.452 µM
SK-MEL-5 melanoma
  GI50: 0.644 µM
  TGI: 4.08 µM
M14 melanoma
  GI50: 1.36 µM
  TGI: 6.57 µM
LOX IMVI melanoma
  GI50: 0.357 µM
  TGI: 3.45 µM
MCF7 breast
  GI50: 0.212 µM
  TGI: 1.64 µM
SF-539 CNS
  GI50: 0.161 µM
  TGI: 1.58 µM
SK-OV-3 ovarian
  GI50: 1.08 µM
  TGI: > 25 µM
KM12 colon
  GI50: 2.41 µM
  TGI: > 25 µM
HOP-62 NSCLC
  GI50: 0.57 µM
  TGI: 3.46 µM
HS 578T breast
  GI50: 0.409 µM
  TGI: 5.34 µM
SR leukemia
  GI50: 0.151 µM
  TGI: > 25 µM
PC-3 prostate
  GI50: 0.277 µM
  TGI: 4.54 µM
HCT-116 colon
  GI50: 0.4 µM
  TGI: 4.45 µM
SNB-75 CNS
  GI50: 0.432 µM
  TGI: 6.44 µM
SK-MEL-2 melanoma
  GI50: 0.154 µM
  TGI: 1.58 µM
HOP-92 NSCLC
  GI50: 0.0288 µM
  TGI: 4.37 µM
EKVX NSCLC
  GI50: 0.953 µM
  TGI: 14.6 µM
SF-295 CNS
  GI50: 0.336 µM
  TGI: > 17 µM
NCI-H522 lung
  GI50: 0.423 µM
  TGI: 4.47 µM
TK-10 renal
  GI50: 0.645 µM
  TGI: 3.7 µM
T-47D breast
  GI50: 0.634 µM
  TGI: > 21.6 µM
SF-268 CNS
  GI50: 0.254 µM
  TGI: 2.48 µM
SN12C renal
  GI50: 1.19 µM
  TGI: > 25 µM
